The structures appear in SMILES notation. Counter-ions that a name gives are not always drawn. Bounds are passed on as bounds.

TrkA, sequence (P04629 33-796): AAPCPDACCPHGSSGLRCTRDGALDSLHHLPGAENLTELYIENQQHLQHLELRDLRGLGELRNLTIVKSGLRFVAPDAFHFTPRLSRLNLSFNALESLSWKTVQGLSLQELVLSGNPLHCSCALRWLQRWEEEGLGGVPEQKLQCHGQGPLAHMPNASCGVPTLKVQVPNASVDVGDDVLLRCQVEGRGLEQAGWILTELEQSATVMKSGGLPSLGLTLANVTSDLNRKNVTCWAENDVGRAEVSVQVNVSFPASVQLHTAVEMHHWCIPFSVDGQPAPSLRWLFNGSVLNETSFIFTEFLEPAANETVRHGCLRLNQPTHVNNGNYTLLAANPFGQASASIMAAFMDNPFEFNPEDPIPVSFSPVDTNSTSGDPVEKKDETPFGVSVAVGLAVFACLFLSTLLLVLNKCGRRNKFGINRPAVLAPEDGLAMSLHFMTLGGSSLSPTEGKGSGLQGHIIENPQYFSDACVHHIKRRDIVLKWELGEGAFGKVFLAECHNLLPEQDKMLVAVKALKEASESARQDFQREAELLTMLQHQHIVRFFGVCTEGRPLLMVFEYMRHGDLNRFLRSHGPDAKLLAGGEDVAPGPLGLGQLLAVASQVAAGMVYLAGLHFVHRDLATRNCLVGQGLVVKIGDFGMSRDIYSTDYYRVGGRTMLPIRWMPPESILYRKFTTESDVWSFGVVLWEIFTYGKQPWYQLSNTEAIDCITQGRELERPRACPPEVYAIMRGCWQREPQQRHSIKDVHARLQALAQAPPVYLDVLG

In the assay the target is TrkA (Homo sapiens (Human), UniProt P04629). As to the kind of experiment: TrkA Omnia Assay. It is filed as biochemical. Particulars: averaged IC50; 20 nM enzyme, 500 μM ATP, 10 μM peptide substrate. In outline:
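Continuous fluorescent kinase read-out (ex 360 nm, em 485 nm) over 70 min, with initial rates fitted to 4- or 5-parameter logistic curves for IC50. Final conditions: 500 μM ATP, 10 μM Omnia Tyr Peptide #4, 20 nM TrkA, MOPS pH 7.5 buffer with MgCl2 and Triton X-100; enzyme and compound preincubated 10 min at ambient temperature.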
Take `COCCN1C[C@@H](NC(=O)Nc2c(C)c([C@H]3C[C@@H](O)C3)nn2-c2ccccc2)[C@H](c2cc(F)cc(F)c2)C1` [Example 456, 1-((3S,4R)-4-(3,5-difluorophenyl)-1-(2-methoxyethyl)pyrrolidin-3-yl)-3-(3-(cis-3-hydroxycyclobutyl)-4-methyl-1-phenyl-1H-pyrazol-5-yl)urea]: the IC50 (in general, the midpoint of a concentration-inhibition curve) is less than 100 nM. In the case of `COCCN1C[C@@H](NC(=O)Nc2c(C)c(OCCN3CCNCC3)nn2-c2ccccc2)[C@H](c2ccc(F)c(F)c2)C1` [Example 538, 1-((3S,4R)-4-(3,5-difluorophenyvl)-1-(2-methoxyethyl)pyrrolidin-3-yl)-3-(4-methyl-1-phenyl-3-(2-(piperazin-1-yl)ethoxy)-1H-pyrazol-5-yl)urea trihydrochloride], the IC50 is less than 100 nM. Take `CCOc1nn(-c2ccccc2)c(NC(=O)N[C@@H]2CN(c3ccc(F)cc3)C[C@H]2c2ccccc2)c1C` [Example 235, 1-(3-ethoxy-4-methyl-1-phenyl-1H-pyrazol-5-yl)-3-((3S,4R)-1-(4-fluorophenyl)-4-phenylpyrrolidin-3-yl)urea]: the IC50 was 100 to 1000 nM.

As for `COCCN1C[C@@H](NC(=O)Nc2c3c(nn2-c2ccccc2)CCC3)[C@H](c2cncc(F)c2)C1` (relative stereo) [Example 341, 1-(trans-4-(5-fluoropyridin-3-yl)-1-(2-methoxyethyl)pyrrolidin-3-yl)-3-(2-phenyl-2,4,5,6-tetrahydrocyclopenta[c]pyrazol-3-yl)urea], the IC50 fell in the range of 100 to 1000 nM.

`O=C(Nc1c2c(nn1-c1ccccc1)CCC2)N[C@@H]1CN(C(CF)CF)C[C@H]1c1ccccc1` (relative stereo) [Example 206, 1-((trans)-1-(1,3-difluoropropan-2-yl)-4-phenylpyrrolidin-3-yl)-3-(2-phenyl-2,4,5,6-tetrahydrocyclopenta[c]pyrazol-3-yl)urea] gave an IC50 of 100 to 1000 nM. Under `CCn1cc(-c2nn(-c3ccccc3)c(NC(=O)N[C@@H]3CN(CCOC)C[C@H]3c3cccc(F)c3)c2C)cn1` [Example 530, 1-(1′-ethyl-4-methyl-1-phenyl-1H,1′H-[3,4′-bipyrazol]-5-yl)-3-((3S,4R)-4-(3-fluorophenyl)-1-(2-methoxyethyl)pyrrolidin-3-yl)urea] stands less than 100 nM. `CCOc1nn(-c2ccccc2)c(NC(=O)N[C@@H]2CN(c3ccccc3C)C[C@H]2c2ccccc2)c1C` [Example 236, 1-(3-ethoxy-4-methyl-1-phenyl-1H-pyrazol-5-yl)-3-((3S,4R)-1-(2-methylphenyl)-4-phenylpyrrolidin-3-yl)urea] returned an IC50 of 100 to 1000 nM. Regarding `COCCN1C[C@@H](NC(=O)Nc2c(C)c(OC[C@H](O)CO)nn2-c2ccccc2)[C@H](c2ccc(F)c(F)c2)C1` [Example 176, 1-((3S,4R)-4-(3,4-difluorophenyl)-1-(2-methoxyethyl)pyrrolidin-3-yl)-3-(3-((R)-2,3-dihydroxypropoxy)-4-methyl-1-phenyl-1H-pyrazol-5-yl)urea], the IC50 is less than 100 nM. Consider `COCCN1C[C@@H](NC(=O)Nc2c(C#N)c(=O)[nH]n2-c2ccccc2)[C@H](c2ccc(F)c(F)c2)C1` [Example 618, 1-(4-cyano-5-oxo-2-phenyl-2,5-dihydro-1H-pyrazol-3-yl)-3-((3S,4R)-4-(3,4-difluorophenyl)-1-(2-methoxyethyl)pyrrolidin-3-yl)urea], for which the IC50 is less than 100 nM. `COCCN1C[C@@H](NC(=O)Nc2c(Cl)c(COC)nn2-c2ccccc2)[C@H](c2ccc(F)cc2)C1` [Example 407, 1-(4-chloro-3-(methoxymethyl)-1-phenyl-1H-pyrazol-5-yl)-3-((3S,4R)-4-(4-fluorophenyl)-1-(2-methoxyethyl)pyrrolidin-3-yl)urea] gave an IC50 of less than 100 nM.

For `COCCN1C[C@@H](NC(=O)Nc2c(C)c(-c3cnc(C)cn3)nn2C)[C@H](c2ccc(F)c(F)c2)C1` [Example 153, 1-((3S,4R)-4-(3,4-difluorophenyl)-1-(2-methoxyethyl)pyrrolidin-3-yl)-3-(1,4-dimethyl-3-(5-methylpyrazin-2-yl)-1H-pyrazol-5-yl) urea], the IC50 fell in the range of 100 to 1000 nM.

For `COCCN1C[C@@H](NC(=O)Nc2cc(C(C)C)nn2-c2ccccc2)[C@H](c2ccc(F)cc2)C1` (relative stereo) [Example 41, trans-1-(4-(4-fluorophenyl)-1-(2-methoxyethyl)pyrrolidin-3-yl)-3-(3-isopropyl-1-phenyl-1H-pyrazol-5-yl)urea], the IC50 was less than 100 nM. In the case of `COCCN1C[C@@H](NC(=O)Nc2c(-c3ccccc3)nn(C(C)C)c2C)[C@H](c2ccc(F)c(F)c2)C1` [Example 641, 1-((3S,4R)-4-(3,4-difluorophenyl)-1-(2-methoxyethyl)pyrrolidin-3-yl)-3-(1-isopropyl-5-methyl-3-phenyl-1H-pyrazol-4-yl)urea] it was 100 to 1000 nM; in that of `COCCN1C[C@@H](NC(=O)Nc2c(C)c(-c3cncc(F)c3)nn2-c2cccnc2)[C@H](c2ccc(F)c(F)c2)C1` [Example 490, 1-((3S,4R)-4-(3,4-difluorophenyl)-1-(2-methoxyethyl)pyrrolidin-3-yl)-3-(3-(5-fluoropyridin-3-yl)-4-methyl-1-(pyridin-3-yl)-1H-pyrazol-5-yl)urea], less than 100 nM. `Cc1c(Br)nn(-c2ccccc2)c1NC(=O)N[C@H]1CN(CC(F)(F)F)C[C@@H]1c1ccccc1` [Example 520, 1-(3-bromo-4-methyl-1-phenyl-1H-pyrazol-5-yl)-3-((3R,4S)-4-phenyl-1-(2,2,2-trifluoroethyl)pyrrolidin-3-yl)urea] showed an IC50 of less than 100 nM. In the case of `COCCN1C[C@@H](NC(=S)Nc2c(C)c(-c3ccc(=O)n(C)c3)nn2-c2ccccc2)[C@H](c2ccc(F)c(F)c2)C1` [Example 631, 1-((3S,4R)-4-(3,4-difluorophenyl)-1-(2-methoxyethyl)pyrrolidin-3-yl)-3-(4-methyl-3-(1-methyl-6-oxo-1,6-dihydropyridin-3-yl)-1-phenyl-1H-pyrazol-5-yl)thiourea] it was less than 100 nM; in that of `COCCN1C[C@@H](NC(=O)Nc2cc(C)nn2C)[C@H](c2ccccc2)C1` (relative stereo) [Example 6, 1-(1,3-dimethyl-1H-pyrazol-5-yl)-3-(trans-1-(2-methoxyethyl)-4-phenylpyrrolidin-3-yl) urea], 1000 to 10000 nM. `COCCN1C[C@@H](NC(=O)Nc2c(Cl)c(C(C)(C)C#N)nn2-c2ccccc2)[C@H](c2ccc(F)c(F)c2)C1` [Example 418, 1-(4-chloro-3-(2-cyanopropan-2-yl)-1-phenyl-1H-pyrazol-5-yl)-3-((3S,4R)-4-(3,4-difluorophenyl)-1-(2-methoxyethyl)pyrrolidin-3-yl)urea] had an IC50 of less than 100 nM. In the case of `COCCN1C[C@@H](NC(=O)Nc2cc(COC3CCNCC3)nn2-c2ccccc2)[C@H](c2ccc(F)c(F)c2)C1` [Example 589, 1-((3S,4R)-4-(3,4-difluorophenyl)-1-(2-methoxyethyl)pyrrolidin-3-yl)-3-(1-phenyl-3-((piperidin-4-yloxy)methyl)-1H-pyrazol-5-yl)urea dihydrochloride] it was 100 to 1000 nM; in that of `Cc1nn(-c2ccccc2)c(NC(=O)N[C@@H]2CN(CC(F)(F)F)C[C@H]2c2ccccc2)c1C` (relative stereo) [Example 195, 1-(3,4-dimethyl-1-phenyl-1H-pyrazol-5-yl)-3-((trans)-4-phenyl-1-(2,2,2-trifluoroethyl)pyrrolidin-3-yl)urea], less than 100 nM.

(Values after patent publication US10323022B2, “Pyrrolidinyl urea, pyrrolidinyl thiourea and pyrrolidinyl guanidine compounds as TrkA kinase inhibitors” (Array BioPharma Inc., priority 2011, dated 2019).)
